Measurements published in patent US10815379B2, “pH sensitive fluorescent probe” (The University of Tokyo, priority 2015, dated 2020).
Like-named read-outs stand apart in the source and are kept apart here. One block for each compound: values may come before it.

What was measured:
[1] = cited from earlier work
[2] = Optical characteristics (absorption, fluorescence, excitation spectra) in 100 mM sodium phosphate buffer; type: physicochemical; conditions: for absorption maximum / absorption wavelength, acidic pH: acidic solution; for absorption maximum / absorption wavelength, basic pH: basic solution
Protocol: The spectral characteristics of compound 1 of the present invention (2,6-diMe BnPiperaIndoSiR) were evaluated. The absorption spectrum, fluorescence spectrum, and excitation spectrum were measured using a Shimadzu UV-1650PC absorption spectrophotometer and a Hitachi F-4500 fluorometer.
(§1) FIG. 2a represents the assumed chemical equilibrium equation of 2,6-diMe BnPiperaIndoSiR. FIGS. 2b, 2c, and 2d respectively represent the absorption, fluorescence, and excitation spectra of 2,6-diMe BnPiperaIndoSiR in 100 mM sodium phosphate buffer (containing 1% DMSO) of different pH.
The spectral characteristics of compound 2 of the present invention (SiRpH3) were evaluated. The absorption spectrum fluorescence spectrum, and excitation spectrum were measured using a Shimadzu UV-1650PC absorption spectrophotometer and a Hitachi F-4500 fluorometer.
(§2) FIGS. 3a, 3b, and 3c represent the absorption, fluorescence, and excitation spectra of SiRpH3 in 100 mM sodium phosphate buffer (containing 1% DMSO) of different pH.
The spectral characteristics of compound 3 of the present invention (SiRpH4) were evaluated. The absorption spectrum fluorescence spectrum, and excitation spectrum were measured using a Shimadzu UV-1650PC absorption spectrophotometer and a Hitachi F-4500 fluorometer.
(§3) FIGS. 4a and 4b represent the absorption and excitation spectra of SiRpH4 in 100 mM sodium phosphate buffer (containing 1% DMSO) of different pH.
The spectral characteristics of compound 4 of the present invention (SiRpH5) were evaluated. The absorption spectrum fluorescence spectrum, and excitation spectrum were measured using a Shimadzu UV-1650PC absorption spectrophotometer and a Hitachi F-4500 fluorometer.
(§4) FIG. 5a represents the assumed chemical equilibrium equation of SiRpH5. FIGS. 5b and 5c represent the absorption and excitation spectra of SiRpH5 in 100 mM sodium phosphate buffer (containing 1%) DMSO) of different pH.

[3] = pKa of the protonation reaction from plot of absorbance or fluorescence intensity ratio vs. pH; type: physicochemical; conditions: for pKa of the protonation reaction: 100 mM sodium phosphate buffer, 1% DMSO
Protocol: as §1, §2, §3, §4

[4] = pH 3.0, 100 mM sodium phosphate buffer
[5] = pH 10.0, 100 mM sodium phosphate buffer
[6] = Table 2, pH 3.0, 100 mM sodium phosphate buffer
[7] = Table 2, pH 7.4, 100 mM sodium phosphate buffer
[8] = Table 2, pH 10.0, 100 mM sodium phosphate buffer
[9] = Table 3, pH 3.0, 100 mM sodium phosphate buffer
[10] = Table 3, pH 10.0, 100 mM sodium phosphate buffer

Compound: 2′,7′-bis-(2-carboxyethyl)-5- (and -6-)carboxyfluoresceins [BCECF]
pKa [1]: 7.0

Absmax [2, 4]: 588 nm
E [2, 4]: 26,000 M^−1 cm^−1
Emmax [2, 4]: 676 nm
Φfl [2, 4]: 0.19
Absmax [2, 5]: 663 nm
E [2, 5]: 33,000 M^−1 cm^−1
Emmax [2, 5]: 689 nm
Φfl [2, 5]: 0.12
decrease of pKa in comparison to 2-Me MePiperaIndoSiR ([3]; by benzylation of the piperazine aliphatic amino group): 0.9
pKa of the protonation reaction ([3]; from changes in absorbance at 663 nm when the pH was varied): 6.4
Compound: Cc1cccc(C)c1C1=c2cc3c(cc2[Si](C)(C)c2cc(N4CCN(Cc5ccccc5)CC4)ccc21)=[N+](C)CC3.O=C(O)C(F)(F)F [2,6-diMe BnPiperaIndoSiR]

lengthening of the absorption wavelength as the pH moved from acidic to basic [2]: approximately 80 nm
Absmax [2, 6]: 585 nm
E [2, 6]: 25,000 M^−1cm^−1
Emmax [2, 6]: 676 nm
Φfl [2, 6]: 0.20
Absmax [2, 7]: 662 nm
E [2, 7]: 30,000 M^−1cm^−1
Emmax [2, 7]: 688 nm
Φfl [2, 7]: 0.12
Absmax [2, 8]: 663 nm
E [2, 8]: 31,000 M^−1cm^−1
Emmax [2, 8]: 689 nm
Φfl [2, 8]: 0.11
absorption maximum / absorption wavelength, acidic pH [2]: approximately 580 nm
absorption maximum / absorption wavelength, basic pH [2]: approximately 660 nm
Compound: Cc1cccc(C)c1C1=c2cc3c(cc2[Si](C)(C)c2cc(N4CCN(Cc5cccc(F)c5)CC4)ccc21)=[N+](C)CC3.O=C(O)C(F)(F)F [SiRpH3]

Compound: Cc1cccc(C)c1C1=c2cc3c(cc2[Si](C)(C)c2cc(N4CCN(Cc5ccccc5S(=O)(=O)O)CC4)ccc21)=[N+](C)CC3 [SiRpH4]
shift of the pKa of the ratio value change [3]: shifted to the basic side in comparison to SiRpH3

Λem [2, 9]: 679 nm
Λex [2, 9]: 588 nm
Φfl [2, 9]: 0.21
ε [2, 9]: 23,000 M^−1cm^−1
Λem [2, 10]: 690 nm
Λex [2, 10]: 668 nm
Φfl [2, 10]: 0.08
ε [2, 10]: 33,000 M^−1cm^−1
absorption maximum / absorption wavelength, acidic pH [2]: approximately 590 nm
absorption maximum / absorption wavelength, basic pH [2]: approximately 670 nm
pKa of the protonation reaction ([3]; from plot of fluorescence intensity ratio (700 nm, excitation 580 nm / 663 nm) vs. pH): 6.1
Compound: Cc1cc(C(=O)O)cc(C)c1C1=c2cc3c(cc2[Si](C)(C)c2cc(N4CCN(Cc5ccc(S(=O)(=O)O)cc5S(=O)(=O)O)CC4)ccc21)=[N+](C)CC3.O=C([O-])C(F)(F)F [SiRpH5]
shift of the pKa of the ratio value change ([3]; in comparison to the named probe): shifted to the acidic side in comparison to SiRpH4
